# In patent US20230064990A1, “DOSING REGIMENS AND METHODS FOR TREATING CANCER” (Panbela Therapeutics, Inc., priority 2020, published 2023):
# Legend:
# [1] = tested on: six human PDA cell lines; assay: Cell proliferation in six human PDA cell lines; format: cell-based
# Description: AsPC-1, BxPC-3, Capan-1, HPAF-II, MIA PaCa-2 and PANC-1 cells were seeded in 96-well plates and allowed to adhere overnight. After 24 h fresh media was added containing 0.5-10 μM concentrations of (S,S)-(HO)2DEHSPM alone or +0.5 μM GEM, +5 nM NAB, or + both, or containing GEM, NAB or GEM+NAB alone. Cell proliferation was measured in triplicate 24, 48, 72 and 96 h post-treatment and IC50 values were calculated.
# [2] = Phase 1 monotherapy dose escalation study, pharmacokinetics; format: in vivo, human; details: 0.05-0.8 mg/kg subcutaneous; Days 1 and 18 of cycle 1
# [3] = Phase 1a/1b study in combination with G and A, safety; format: in vivo, human
# Description: (§1) G (1000 mg/m^2) and A (125 mg/m^2) were administered intravenously on Days 1, 8, and 15 of each cycle. […] PK was evaluated on day 1 of cycle 1. Efficacy was assessed by CA19-9 levels, objective response was assessed by RECIST criteria, progression-free survival (PFS) and overall survival (OS).
# (§2) This is a multicenter, open label, Phase 1a/1b study to evaluate to evaluate the safety, tolerability, pharmacokinetics and efficacy of (S,S)-(HO)2DEHSPM when administered in combination with G and A as first-line therapy in pancreatic cancer patients previously untreated for metastatic disease. The objective was to determine a recommended Phase 2 dose. Using a modified 3+3 dose escalation scheme, cohorts of subjects were dosed with subcutaneous injections of (S,S)-(HO)2DEHSPM at 0.2, 0.4 or 0.6 mg/kg days 1-5 of each 28-day cycle. Gemcitabine (1000 mg/m^2) and A (125 mg/m^2) were administered intravenously on Days 1, 8, and 15 of each cycle. […] PK was evaluated on day 1 of cycle 1. Efficacy was assessed by objective response rate (ORR) using RECIST criteria and by changes in CA19-9 levels. Subjects were treated until disease progression or the development of dose-limiting toxicity. Based upon initial safety findings and preliminary signals of efficacy, the protocol was amended to evaluate progression-free survival (PFS) and overall survival (OS) and expand the study to up to 36 subjects at the recommended Phase 2 dose. To date, 20 subjects were enrolled in cohorts 1-3 and evaluated for dose limiting toxicity and early signals of efficacy.
# [4] = tested on: metastatic PDA; assay: Phase 1a/1b study in combination with G and A, efficacy (RECIST, CA19-9); format: in vivo, human
# Description: as §1, §2
# [5] = Phase 1a/1b Cohort 4, shortened daily/periodic dosing regimen, liver toxicity; format: in vivo, human; details: Cohort 4 regimen vs reference dosing regimen, particularly Cohort 3
# Description: As part of the same study described in Example 4, one cohort of patients (Cohort 4) was administered a combination shortened daily dosing regimen/periodic dosing regimen and liver toxicities were compared to the reference dosing regimen described in Example 4.
# Cohort 4 was administered 0.4 mg/kg/day of (S,S)-(HO)2DEHSPM for 5 consecutive days (for a total of 5 doses/cycle) beginning on day 1 (i.e. days 1-5) of each of Cycles 1 and 2. Thereafter Cohort 4 was administered 0.4 mg/kg/day of (S,S)-(HO)2DEHSPM on Days 1, 8 and 15 beginning on day 1 of Cycle 3 (for a total of 3 doses per cycle) and continuing for each cycle thereafter. Cohort 4 patients were treated for 3 to 6 or more total cycles depending on the individual patient's tolerance of treatment.
# [6] = Phase 1 monotherapy dose escalation study, safety and tolerability
# Description: Safety and tolerability were evaluated by clinical and laboratory assessments. PK was evaluated on Days 1 and 18 of cycle 1. Efficacy was assessed by RECIST criteria and overall survival.
# [7] = N=20, (S,S)-(HO)2DEHSPM with G + A
# [8] = N=20, in combination with G + A
# [9] = Cohorts 2 and 3, N=13 evaluable, with G and A
# [10] = in combination with G+A, previously untreated metastatic PDA
# [11] = interim, cohorts 2 and 3, with G and A
smiles,measurement,setting,value
"CCNCCC(O)CNCCCCNCC(O)CCNCC [(S,S)-(HO)2DEHSPM, (6S,15S)-3,8,13,18-teraazaicosane-6,15-diol]",anti-proliferative effect,"[1]; 0.5-10 μM, maximal inhibition most often with 10 μM",anti-proliferative effect in all cell lines
same,"inhibition by (S,S)-(HO)2DEHSPM alone compared with GEM+NAB","[1]; ASPC-1, BxPC-3 and Capan-1 cells, p<0.005",greater inhibition than GEM+NAB
same,Plasma Cmax and AUC0-t versus dose,[2],increased linearly with dose
same,Grade ≥3 Anemia related to the named study medication (subjects),[3]; N=20,0
same,Grade ≥3 Dehydration related to the named study medication (subjects),[3]; N=20,0
same,Grade ≥3 Delirium related to the named study medication (subjects),[3]; N=20,0
same,Grade ≥3 Dyspnea related to the named study medication (subjects),[3]; N=20,0
same,Grade ≥3 Elevated LFTs related to the named study medication (subjects),[3]; N=20,4
same,Grade ≥3 Elevated Lipase related to the named study medication (subjects),[3]; N=20,1
same,Grade ≥3 Fatigue related to the named study medication (subjects),[3]; N=20,0
same,Grade ≥3 Hiccups (Intractable) related to the named study medication (subjects),[3]; N=20,0
same,Grade ≥3 Hyponatremia related to the named study medication (subjects),[3]; N=20,0
same,Grade ≥3 Neutropenia related to the named study medication (subjects),[3]; N=20,0
same,Grade ≥3 Thrombocytopenia related to the named study medication (subjects),[3]; N=20,0
same,"Grade ≥3 Anemia related to any study medication, Total (%)",[3]; [7],(15%)
same,"Grade ≥3 Anemia related to any study medication, Total N",[3]; [7],3
same,"Grade ≥3 Dehydration related to any study medication, Total (%)",[3]; [7],(5%)
same,"Grade ≥3 Dehydration related to any study medication, Total N",[3]; [7],1
same,"Grade ≥3 Delirium related to any study medication, Total (%)",[3]; [7],(5%)
same,"Grade ≥3 Delirium related to any study medication, Total N",[3]; [7],1
same,"Grade ≥3 Dyspnea related to any study medication, Total (%)",[3]; [7],(5%)
same,"Grade ≥3 Dyspnea related to any study medication, Total N",[3]; [7],1
same,"Grade ≥3 Elevated LFTs related to any study medication, Total (%)",[3]; [7],(20%)
same,"Grade ≥3 Elevated LFTs related to any study medication, Total N",[3]; [7],4
same,"Grade ≥3 Elevated Lipase related to any study medication, Total (%)",[3]; [7],(5%)
same,"Grade ≥3 Elevated Lipase related to any study medication, Total N",[3]; [7],1
same,"Grade ≥3 Fatigue related to any study medication, Total (%)",[3]; [7],(5%)
same,"Grade ≥3 Fatigue related to any study medication, Total N",[3]; [7],1
same,"Grade ≥3 Hiccups (Intractable) related to any study medication, Total (%)",[3]; [7],(5%)
same,"Grade ≥3 Hiccups (Intractable) related to any study medication, Total N",[3]; [7],1
same,"Grade ≥3 Hyponatremia related to any study medication, Total (%)",[3]; [7],(5%)
same,"Grade ≥3 Hyponatremia related to any study medication, Total N",[3]; [7],1
same,"Grade ≥3 Neutropenia related to any study medication, Total (%)",[3]; [7],(30%)
same,"Grade ≥3 Neutropenia related to any study medication, Total N",[3]; [7],6
same,"Grade ≥3 Thrombocytopenia related to any study medication, Total (%)",[3]; [7],(5%)
same,"Grade ≥3 Thrombocytopenia related to any study medication, Total N",[3]; [7],1
same,"Grade ≥ 3 Anemia, %",[3]; [8],15%
same,"Grade ≥ 3 Diarrhea, %",[3]; [8],0%
same,"Grade ≥ 3 Fatigue, %",[3]; [8],5%
same,"Grade ≥ 3 Leukopenia (G3-4), %",[3]; [8],15%
same,"Grade ≥ 3 Neutropenia (G3-4), %",[3]; [8],30%
same,"Grade ≥ 3 Peripheral Neuropathy, %",[3]; [8],0%
same,"Grade ≥ 3 Thrombocytopenia, %",[3]; [8],5%
same,"Diarrhea, Grade 1 (related AE, subjects)","[3]; N=20, with G+A",1
same,"Diarrhea, Grade 2 (related AE, subjects)","[3]; N=20, with G+A",1
same,"Diarrhea, Grade 3 (related AE, subjects)","[3]; N=20, with G+A",0
same,"Diarrhea, Grade 4 (related AE, subjects)","[3]; N=20, with G+A",0
same,"Diarrhea, Grade 5 (related AE, subjects)","[3]; N=20, with G+A",0
same,"Diarrhea, Total (%) (related AE)","[3]; N=20, with G+A",10%
same,"Diarrhea, Total N (related AE)","[3]; N=20, with G+A",2
same,"Elevated Liver Function Tests (LFTs), Grade 1 (related AE, subjects)","[3]; N=20, with G+A",0
same,"Elevated Liver Function Tests (LFTs), Grade 2 (related AE, subjects)","[3]; N=20, with G+A",0
same,"Elevated Liver Function Tests (LFTs), Grade 3 (related AE, subjects)","[3]; N=20, with G+A",3
same,"Elevated Liver Function Tests (LFTs), Grade 4 (related AE, subjects)","[3]; N=20, with G+A",1
same,"Elevated Liver Function Tests (LFTs), Grade 5 (related AE, subjects)","[3]; N=20, with G+A",0
same,"Elevated Liver Function Tests (LFTs), Total (%) (related AE)","[3]; N=20, with G+A",20%
same,"Elevated Liver Function Tests (LFTs), Total N (related AE)","[3]; N=20, with G+A",4
same,"Fatigue, Grade 1 (related AE, subjects)","[3]; N=20, with G+A",4
same,"Fatigue, Grade 2 (related AE, subjects)","[3]; N=20, with G+A",3
same,"Fatigue, Grade 3 (related AE, subjects)","[3]; N=20, with G+A",1
same,"Fatigue, Grade 4 (related AE, subjects)","[3]; N=20, with G+A",0
same,"Fatigue, Grade 5 (related AE, subjects)","[3]; N=20, with G+A",0
same,"Fatigue, Total (%) (related AE)","[3]; N=20, with G+A",40%
same,"Fatigue, Total N (related AE)","[3]; N=20, with G+A",8
same,"Injection site pain, Grade 1 (related AE, subjects)","[3]; N=20, with G+A",4
same,"Injection site pain, Grade 2 (related AE, subjects)","[3]; N=20, with G+A",0
same,"Injection site pain, Grade 3 (related AE, subjects)","[3]; N=20, with G+A",0
same,"Injection site pain, Grade 4 (related AE, subjects)","[3]; N=20, with G+A",0
same,"Injection site pain, Grade 5 (related AE, subjects)","[3]; N=20, with G+A",0
same,"Injection site pain, Total (%) (related AE)","[3]; N=20, with G+A",20%
same,"Injection site pain, Total N (related AE)","[3]; N=20, with G+A",4
same,"Nausea, Grade 1 (related AE, subjects)","[3]; N=20, with G+A",1
same,"Nausea, Grade 2 (related AE, subjects)","[3]; N=20, with G+A",1
same,"Nausea, Grade 3 (related AE, subjects)","[3]; N=20, with G+A",0
same,"Nausea, Grade 4 (related AE, subjects)","[3]; N=20, with G+A",0
same,"Nausea, Grade 5 (related AE, subjects)","[3]; N=20, with G+A",0
same,"Nausea, Total (%) (related AE)","[3]; N=20, with G+A",10%
same,"Nausea, Total N (related AE)","[3]; N=20, with G+A",2
same,liver enzyme elevation,"[3]; interim, one patient in cohort 2 (0.4 mg/kg), with G and A",grade 3-4 reversible liver enzyme elevation
same,"(S,S)-(HO)2DEHSPM-related bone marrow suppression or peripheral neuropathy","[3]; interim, with G and A","no evidence of (S,S)-(HO)2DEHSPM-related bone marrow suppression or peripheral neuropathy"
same,"reversibility of (S,S)-(HO)2DEHSPM-related increases in liver toxicity",[3]; when administration was interrupted and dose-reduced or discontinued,reversed in all but one subject
same,"Best response PR, number of evaluable subjects",[4]; [9],8
same,"Best response PR, percent of evaluable subjects",[4]; [9],62%
same,"Best response SD, number of evaluable subjects",[4]; [9],5
same,"Best response SD, percent of evaluable subjects",[4]; [9],38%
same,subjects with CA 19-9 maximum decrease greater than 60%,"[4]; cohorts 2 and 3, N=16, with G and A",69%
same,DCR,[4]; [10],85%
same,ORR,[4]; [10],62%
same,CA19-9 levels decreased,"[4]; interim, cohorts 2 and 3, 7 of 8 evaluable subjects, with G and A",76-95%
same,Stable disease,[4]; [11],1
same,partial responses,[4]; [11],5 patients
same,severe liver toxicities compared to cohorts of Example 4,[5],unexpectedly reduced or eliminated
same,drug-related bone marrow suppression or peripheral neuropathy,[6]; any dose,No drug-related bone marrow suppression or peripheral neuropathy was seen at any dose
same,focal pancreatitis at the site of the tumor,"[6]; cohort 4 (0.4 mg/kg), at 2.3 months",one patient in cohort 4 developed focal pancreatitis
same,DLTs,"[6]; cohort 5 (0.8 mg/kg), N=10",Three patients in cohort 5 developed serious adverse events considered dose limiting toxicities
same,DLTs,[6]; cohorts 1-4 (0.05-0.4 mg/kg),No DLTs occurred
same,drug-related serious adverse events (SAEs) or dose limiting toxicities (DLTs),[6]; up to 0.4 mg/kg/day Monday through Friday×3 weeks (TCD~6 mg/kg per 8 week cycle),No drug-related serious adverse events (SAEs) or dose limiting toxicities (DLTs) were observed
